# From patent US20260027116A1, “Methods of Treating Chronic Graft-Versus-Host Disease Following Allogeneic Hematopoietic Stem Cell Transplantation” (Kadmon Corporation, LLC, priority 2022, published 2026)
# What was measured:
# [1] = tested on: cGVHD symptom burden; experiment: Example 1: Lee Symptom Scale (LSS) score; assay type: in vivo, human
# Method: Lee Symptom Scale (LSS) summary score measures the effect on patients' functioning and well-being. The Lee Symptom Scale is a 30-item scale developed to measure the symptoms of cGVHD and is described in Lec S J, Cook E F, Soiffer R, Antin J H. Development and validation of a scale to measure symptoms of chronic graft-versushost disease. Biol Blood Marrow Transplant 2002; 8:444-452.
# All responses were assessed by the investigators.
# Change From Baseline in Overall Score on Lee cGvHD Symptom Scale at Specified Time Points. Lee cGVHD symptom scale, a patient-reported symptom scale used to measure symptom burden and has 7 subscales (Skin, Eyes and Mouth, Breathing, Eating and Digestion, Muscles and Joints, Energy, and Mental and Emotional) with ratings as follows: 0—Not at all, 1—Slightly, 2—Moderately, 3—Quite a bit, 4—Extremely, with lower values representing better outcome. Score for each subscale was normalized to a score ranged from 0 to 100, where higher score=worse symptoms. An overall score was calculated as average of these 7 subscales. EOT visit was performed within 3 days after the participant's last dose of study drug. Baseline value was defined as valid and last non-missing value obtained within 28 days prior to participant receiving first study medication. […] Analysis was performed on mITT population. Here, ‘number analyzed’=participants with available data for each specified category. Here, ‘0’ in the number analyzed field signifies that none of the participants were available for the analysis at the specified time points.
# [2] = clinical drug interaction studies, effects of other drugs on belumosudil; assay type: in vivo, human; details: healthy subjects
smiles,measurement,setting,value
"CC(C)NC(=O)COc1cccc(-c2nc(Nc3ccc4[nH]ncc4c3)c3ccccc3n2)c1 [Belumosudil, 2-{3-[4-(1H-indazol-5-ylamino)-2-quinazolinyl]phenoxy}-N-(propan-2-yl) acetamide]","Change From Baseline in Overall Score on Lee cGvHD Symptom Scale, Mean (Standard Deviation)","[1]; Cohort 2: 200 mg BID, Cycle 13, Day 1",−5.9 (8.8) score on a scale
same,"Change From Baseline in Overall Score on Lee cGvHD Symptom Scale, Mean (Standard Deviation)","[1]; Cohort 2: 200 mg BID, Cycle 14, Day 1",−5.0 (7.3) score on a scale
same,"Change From Baseline in Overall Score on Lee cGvHD Symptom Scale, Mean (Standard Deviation)","[1]; Cohort 2: 200 mg BID, Cycle 15, Day 1",−6.8 (7.0) score on a scale
same,"Change From Baseline in Overall Score on Lee cGvHD Symptom Scale, Mean (Standard Deviation)","[1]; Cohort 2: 200 mg BID, Cycle 16, Day 1",−6.9 (7.6) score on a scale
same,"Change From Baseline in Overall Score on Lee cGvHD Symptom Scale, Mean (Standard Deviation)","[1]; Cohort 2: 200 mg BID, Cycle 27, Day 1",−13.2 (6.6) score on a scale
same,"Change From Baseline in Overall Score on Lee cGvHD Symptom Scale, Mean (Standard Deviation)","[1]; Cohort 2: 200 mg BID, Cycle 29, Day 1",−11.0 (7.3) score on a scale
same,"Change From Baseline in Overall Score on Lee cGvHD Symptom Scale, Mean (Standard Deviation)","[1]; Cohort 2: 200 mg BID, Cycle 31, Day 1",−15.6 (4.3) score on a scale
same,"Change From Baseline in Overall Score on Lee cGvHD Symptom Scale, Mean (Standard Deviation)","[1]; Cohort 2: 200 mg BID, Cycle 33, Day 1",−13.5 (9.0) score on a scale
same,"Change From Baseline in Overall Score on Lee cGvHD Symptom Scale, Mean (Standard Deviation)","[1]; Cohort 2: 200 mg BID, Cycle 35, Day 1",−11.0 (12.4) score on a scale
same,"Change From Baseline in Overall Score on Lee cGvHD Symptom Scale, Mean (Standard Deviation)","[1]; Cohort 2: 200 mg BID, Cycle 37, Day 1",−13.6 (8.1) score on a scale
same,"Change From Baseline in Overall Score on Lee cGvHD Symptom Scale, Mean (Standard Deviation)","[1]; Cohort 2: 200 mg BID, Cycle 39, Day 1",−14.3 (8.5) score on a scale
same,"Change From Baseline in Overall Score on Lee cGvHD Symptom Scale, Mean (Standard Deviation)","[1]; Cohort 2: 200 mg BID, Cycle 41, Day 1",−19.3 (—) score on a scale
same,"Change From Baseline in Overall Score on Lee cGvHD Symptom Scale, Mean (Standard Deviation)","[1]; Cohort 2: 200 mg BID, Cycle 43, Day 1",−19.9 (—) score on a scale
same,"Change From Baseline in Overall Score on Lee cGvHD Symptom Scale, Mean (Standard Deviation)","[1]; Cohort 2: 200 mg BID, Cycle 47, Day 1",−16.8 (—) score on a scale
same,"Change From Baseline in Overall Score on Lee cGvHD Symptom Scale, Mean (Standard Deviation)","[1]; Cohort 2: 200 mg BID, Cycle 49, Day 1",−15.4 (—) score on a scale
same,"Change From Baseline in Overall Score on Lee cGvHD Symptom Scale, Mean (Standard Deviation)","[1]; Cohort 2: 200 mg BID, EOT",−2.4 (10.9) score on a scale
same,"LSS improvement, nonresponder, n/N",[1]; Cohort 3 400 mg QD,2/8
same,"LSS improvement, responder, n/N",[1]; Cohort 3 400 mg QD,9/13
same,"Change From Baseline in Overall Score on Lee cGvHD Symptom Scale, Mean (Standard Deviation)","[1]; Cohort 3: 400 mg QD, Cycle 2, Day 1",−5.2 (6.3) score on a scale
same,"Change From Baseline in Overall Score on Lee cGvHD Symptom Scale, Mean (Standard Deviation)","[1]; Cohort 3: 400 mg QD, Cycle 3, Day 1",−4.3 (8.2) score on a scale
same,"Change From Baseline in Overall Score on Lee cGvHD Symptom Scale, Mean (Standard Deviation)","[1]; Cohort 3: 400 mg QD, Cycle 4, Day 1",−2.7 (8.2) score on a scale
same,"Change From Baseline in Overall Score on Lee cGvHD Symptom Scale, Mean (Standard Deviation)","[1]; Cohort 3: 400 mg QD, Cycle 5, Day 1",−0.5 (10.8) score on a scale
same,"Change From Baseline in Overall Score on Lee cGvHD Symptom Scale, Mean (Standard Deviation)","[1]; Cohort 3: 400 mg QD, Cycle 6, Day 1",−0.8 (9.3) score on a scale
same,"Change From Baseline in Overall Score on Lee cGvHD Symptom Scale, Mean (Standard Deviation)","[1]; Cohort 3: 400 mg QD, Cycle 7, Day 1",−2.0 (12.3) score on a scale
same,"Change From Baseline in Overall Score on Lee cGvHD Symptom Scale, Mean (Standard Deviation)","[1]; Cohort 3: 400 mg QD, Cycle 8, Day 1",−2.9 (10.9) score on a scale
same,"Change From Baseline in Overall Score on Lee cGvHD Symptom Scale, Mean (Standard Deviation)","[1]; Cohort 3: 400 mg QD, Cycle 9, Day 1",−3.6 (10.2) score on a scale
same,"Change From Baseline in Overall Score on Lee cGvHD Symptom Scale, Mean (Standard Deviation)","[1]; Cohort 3: 400 mg QD, Cycle 10, Day 1",−3.7 (9.9) score on a scale
same,"Change From Baseline in Overall Score on Lee cGvHD Symptom Scale, Mean (Standard Deviation)","[1]; Cohort 3: 400 mg QD, Cycle 11, Day 1",−4.5 (6.1) score on a scale
same,"Change From Baseline in Overall Score on Lee cGvHD Symptom Scale, Mean (Standard Deviation)","[1]; Cohort 3: 400 mg QD, Cycle 12, Day 1",−2.8 (6.0) score on a scale
same,"Change From Baseline in Overall Score on Lee cGvHD Symptom Scale, Mean (Standard Deviation)","[1]; Cohort 3: 400 mg QD, Cycle 13, Day 1",−0.6 (7.1) score on a scale
same,"Change From Baseline in Overall Score on Lee cGvHD Symptom Scale, Mean (Standard Deviation)","[1]; Cohort 3: 400 mg QD, Cycle 14, Day 1",−1.5 (7.7) score on a scale
same,"Change From Baseline in Overall Score on Lee cGvHD Symptom Scale, Mean (Standard Deviation)","[1]; Cohort 3: 400 mg QD, Cycle 15, Day 1",−3.2 (8.2) score on a scale
same,"Change From Baseline in Overall Score on Lee cGvHD Symptom Scale, Mean (Standard Deviation)","[1]; Cohort 3: 400 mg QD, Cycle 16, Day 1",1.9 (7.9) score on a scale
same,"Change From Baseline in Overall Score on Lee cGvHD Symptom Scale, Mean (Standard Deviation)","[1]; Cohort 3: 400 mg QD, Cycle 27, Day 1",−6.0 (9.6) score on a scale
same,"Change From Baseline in Overall Score on Lee cGvHD Symptom Scale, Mean (Standard Deviation)","[1]; Cohort 3: 400 mg QD, Cycle 28, Day 1",2.6 (—) score on a scale
same,"Change From Baseline in Overall Score on Lee cGvHD Symptom Scale, Mean (Standard Deviation)","[1]; Cohort 3: 400 mg QD, Cycle 29, Day 1",−3.7 (13.0) score on a scale
same,"Change From Baseline in Overall Score on Lee cGvHD Symptom Scale, Mean (Standard Deviation)","[1]; Cohort 3: 400 mg QD, Cycle 31, Day 1",−12.9 (—) score on a scale
same,"Change From Baseline in Overall Score on Lee cGvHD Symptom Scale, Mean (Standard Deviation)","[1]; Cohort 3: 400 mg QD, Cycle 33, Day 1",−12.9 (—) score on a scale
same,"Change From Baseline in Overall Score on Lee cGvHD Symptom Scale, Mean (Standard Deviation)","[1]; Cohort 3: 400 mg QD, Cycle 35, Day 1",−12.9 (—) score on a scale
same,"Change From Baseline in Overall Score on Lee cGvHD Symptom Scale, Mean (Standard Deviation)","[1]; Cohort 3: 400 mg QD, Cycle 39, Day 1",−12.9 (—) score on a scale
same,"Change From Baseline in Overall Score on Lee cGvHD Symptom Scale, Mean (Standard Deviation)","[1]; Cohort 3: 400 mg QD, Cycle 41, Day 1",−12.9 (—) score on a scale
same,"Change From Baseline in Overall Score on Lee cGvHD Symptom Scale, Mean (Standard Deviation)","[1]; Cohort 3: 400 mg QD, Cycle 43, Day 1",−12.9 (—) score on a scale
same,"Change From Baseline in Overall Score on Lee cGvHD Symptom Scale, Mean (Standard Deviation)","[1]; Cohort 3: 400 mg QD, Cycle 45, Day 1",−12.3 (—) score on a scale
same,"Change From Baseline in Overall Score on Lee cGvHD Symptom Scale, Mean (Standard Deviation)","[1]; Cohort 3: 400 mg QD, Cycle 47, Day 1",−12.9 (—) score on a scale
same,"Change From Baseline in Overall Score on Lee cGvHD Symptom Scale, Mean (Standard Deviation)","[1]; Cohort 3: 400 mg QD, Cycle 49, Day 1",−14.3 (—) score on a scale
same,"Change From Baseline in Overall Score on Lee cGvHD Symptom Scale, Mean (Standard Deviation)","[1]; Cohort 3: 400 mg QD, Cycle 51, Day 1",−12.9 (—) score on a scale
same,"Change From Baseline in Overall Score on Lee cGvHD Symptom Scale, Mean (Standard Deviation)","[1]; Cohort 3: 400 mg QD, EOT",2.5 (11.9) score on a scale
same,"clinically meaningful LSS improvement on consecutive assessments, nonresponders",[1]; Example 1,32%
same,"clinically meaningful LSS improvement on consecutive assessments, responders",[1]; Example 1,37%
same,"LSS improvement, nonresponder, n/N","[1]; Total, N=54",7/19
same,"LSS improvement, responder, n/N","[1]; Total, N=54",20/35
same,"clinically significant LSS improvement, overall, % (95% CI)","[1]; Total, N=54",50%
same,decrease of belumosudil AUC with omeprazole,[2],47%
same,decrease of belumosudil AUC with rabeprazole,[2],80%
same,decrease of belumosudil AUC with rifampin,[2],72%
same,decrease of belumosudil Cmax with omeprazole,[2],68%
same,decrease of belumosudil Cmax with rabeprazole,[2],87%
same,decrease of belumosudil Cmax with rifampin,[2],59%
same,effect of itraconazole on belumosudil exposure,[2],no clinically meaningful effect
